{
  "source": "the supplement of paper PMC10307832",
  "assay_in_all_cases": "relative viability (nuclei count vs DMSO), 5 days (fraction); higher = more cells survive",
  "key": {"RO-3306 + OSI-027": {"compound": "C1=CC2=C(C=CC(=C2)C=C3C(=O)NC(=NCC4=CC=CS4)S3)N=C1 [RO-3306] + COc1cccc2cc(-c3nc([C@H]4CC[C@H](C(=O)O)CC4)n4ncnc(N)c34)[nH]c12 [OSI-027] (partner 0.5 µM)", "how_it_was_run": "(§1)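 One day after seeding in 1536-well plates, lung cancer cell lines were dosed by pin tool. Dosing was either single-drug or a fixed anchor-drug dose plus five library-drug doses (not always all listed) in √10 steps. After 5 days, nuclei were stained in one fix-and-stain step and counted on 4× images, and relative viability is the nuclei count of treated wells over that of vehicle wells, given as the median of duplicate plates.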"}, "RO-3306 + Vorinostat": {"compound": "C1=CC2=C(C=CC(=C2)C=C3C(=O)NC(=NCC4=CC=CS4)S3)N=C1 [RO-3306] + O=C(CCCCCCC(=O)Nc1ccccc1)NO [Vorinostat] (partner 1 µM)", "how_it_was_run": "as §1"}, "RO-3306 + Decitabine": {"compound": "C1=CC2=C(C=CC(=C2)C=C3C(=O)NC(=NCC4=CC=CS4)S3)N=C1 [RO-3306] + Nc1ncn([C@H]2C[C@H](O)[C@@H](CO)O2)c(=O)n1 [Decitabine] (partner 2 µM)", "how_it_was_run": "as §1"}, "[1]": {"compound": "O=S(=O)(c1ccccc1)N(CC(F)(F)F)c1ccc(C(O)(C(F)(F)F)C(F)(F)F)cc1 + N=C(N)NC(=N)NCCc1ccccc1 [Phenformin] (partner 250 µM)", "how_it_was_run": "as §1"}},
  "data": [
    {"cell line": "UMC-11", "values": [
      {"measurement": "relative viability", "setting": "RO-3306 + OSI-027; first compound 0.01 µM", "result": 0.496},
      {"measurement": "relative viability", "setting": "RO-3306 + OSI-027; first compound 0.03162 µM", "result": 0.384},
      {"measurement": "relative viability", "setting": "RO-3306 + OSI-027; first compound 0.1 µM", "result": 0.456},
      {"measurement": "relative viability", "setting": "RO-3306 + OSI-027; first compound 0.3162 µM", "result": 0.552},
      {"measurement": "relative viability", "setting": "RO-3306 + OSI-027; first compound 1 µM", "result": 0.453},
      {"measurement": "relative viability", "setting": "RO-3306 + Vorinostat; first compound 0.01 µM", "result": 0.386},
      {"measurement": "relative viability", "setting": "RO-3306 + Vorinostat; first compound 0.03162 µM", "result": 0.376},
      {"measurement": "relative viability", "setting": "RO-3306 + Vorinostat; first compound 0.1 µM", "result": 0.384},
      {"measurement": "relative viability", "setting": "RO-3306 + Vorinostat; first compound 0.3162 µM", "result": 0.339},
      {"measurement": "relative viability", "setting": "RO-3306 + Vorinostat; first compound 1 µM", "result": 0.322},
      {"measurement": "relative viability", "setting": "RO-3306 + Decitabine; first compound 0.01 µM", "result": 0.569},
      {"measurement": "relative viability", "setting": "RO-3306 + Decitabine; first compound 0.03162 µM", "result": 0.58},
      {"measurement": "relative viability", "setting": "RO-3306 + Decitabine; first compound 0.1 µM", "result": 0.613},
      {"measurement": "relative viability", "setting": "RO-3306 + Decitabine; first compound 0.3162 µM", "result": 0.607},
      {"measurement": "relative viability", "setting": "RO-3306 + Decitabine; first compound 1 µM", "result": 0.583},
      {"measurement": "relative viability", "setting": "[1]; first compound 0.8 µM", "result": 0.315},
      {"measurement": "relative viability", "setting": "[1]; first compound 2.53 µM", "result": 0.295},
      {"measurement": "relative viability", "setting": "[1]; first compound 8 µM", "result": 0.315}
    ]}
  ]
}
